From the supplement of paper PMC11208160

assay: recombinant barcode read abundance after kanamycin selection (control-corrected) (log10(CPM+1)); higher = more efficient recombination; sequences stand for … in AGTGCAGAGAAAATCGGCCAGTTTTCTCTGCCTGCAGTCCGCATGCCGT…ATTTATGCAGCGGACTGCCTTTCTCCCAAAGTGATAAACCGGACAGTATCATGGACCGGTTTTCCCGGTAATCCGTATTTGCAAGGTTGGTTTCACT; site = the 11-nt target
How it was run: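 In E. coli, a pooled library matched targets to IS621 bridge RNA target-binding loops and was introduced alongside a donor plasmid. Cells went onto chloramphenicol/ampicillin/kanamycin with 0.1 mM IPTG or onto chloramphenicol/ampicillin LB agar as control, in duplicate. Recombination efficiency, from recombinant-junction barcodes as counts per million, is averaged and control-corrected. It is reported as log10(CPM+1).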

In order of rising “recombinant barcode read abundance (log10)” value:
1. TGTATTCCTTGGGTTCTAACCTGTTGCCTTT [TGTATTCCTAG_LTGcore_CT_RTGcore_AA] (site TGTATTCCTAG) (LTG core: CT, RTG core: AA)  0.0134
2. TCTACCCGGTGGGTTCTAACCTGTTGCTGAG [TCTACCCCTCA_LTGcore_GG_RTGcore_CT] (site TCTACCCCTCA) (LTG core: GG, RTG core: CT)  0.0172
3. TGTATTCGGTGGGTTCTAACCTGTTGCCTAG [TGTATTCCTAG_LTGcore_GG_RTGcore_CT] (site TGTATTCCTAG) (LTG core: GG, RTG core: CT)  0.0184
4. TGATACCGTTGGGTTCTAACCTGTTGCGTAC [TGATACCCTAC_LTGcore_GT_RTGcore_GT] (site TGATACCCTAC) (LTG core: GT, RTG core: GT)  0.0235
5. TGTATTCTATGGGTTCTAACCTGTTGCCTAG [TGTATTCCTAG_LTGcore_TA_RTGcore_CT] (site TGTATTCCTAG) (LTG core: TA, RTG core: CT)  0.0251
6. TGATACCCTTGGGTTCTAACCTGTTGCGTCG [TGATACCCTAC_LTGcore_CT_RTGcore_CG] (site TGATACCCTAC) (LTG core: CT, RTG core: CG)  0.0319
7. TCTACCCCTTGGGTTCTAACCTGTTGCTGTC [TCTACCCCTCA_LTGcore_CT_RTGcore_GA] (site TCTACCCCTCA) (LTG core: CT, RTG core: GA)  0.0329
8. TGTATTCTGTGGGTTCTAACCTGTTGCCTAG [TGTATTCCTAG_LTGcore_TG_RTGcore_CT] (site TGTATTCCTAG) (LTG core: TG, RTG core: CT)  0.0339
9. TGTATTCCTTGGGTTCTAACCTGTTGCCTAA [TGTATTCCTAG_LTGcore_CT_RTGcore_TT] (site TGTATTCCTAG) (LTG core: CT, RTG core: TT)  0.0404
10. TGTATTCCTTGGGTTCTAACCTGTTGCCTGG [TGTATTCCTAG_LTGcore_CT_RTGcore_CC] (site TGTATTCCTAG) (LTG core: CT, RTG core: CC)  0.0432
11. TGTATTCACTGGGTTCTAACCTGTTGCCTAG [TGTATTCCTAG_LTGcore_AC_RTGcore_CT] (site TGTATTCCTAG) (LTG core: AC, RTG core: CT)  0.0447
12. TCTACCCTATGGGTTCTAACCTGTTGCTGAG [TCTACCCCTCA_LTGcore_TA_RTGcore_CT] (site TCTACCCCTCA) (LTG core: TA, RTG core: CT)  0.0453
13. TCTACCCGATGGGTTCTAACCTGTTGCTGTC [TCTACCCCTCA_LTGcore_GA_RTGcore_GA] (site TCTACCCCTCA) (LTG core: GA, RTG core: GA)  0.0498
14. TTATAAACATGGGTTCTAACCTGTTGCCTTG [TTATAAACTAG_LTGcore_CA_RTGcore_CA] (site TTATAAACTAG) (LTG core: CA, RTG core: CA)  0.0537
15. TCTACCCCTTGGGTTCTAACCTGTTGCTGTT [TCTACCCCTCA_LTGcore_CT_RTGcore_AA] (site TCTACCCCTCA) (LTG core: CT, RTG core: AA)  0.07
16. TTATAAAAATGGGTTCTAACCTGTTGCCTAG [TTATAAACTAG_LTGcore_AA_RTGcore_CT] (site TTATAAACTAG) (LTG core: AA, RTG core: CT)  0.0784
17. TGTATTCTTTGGGTTCTAACCTGTTGCCTAA [TGTATTCCTAG_LTGcore_TT_RTGcore_TT] (site TGTATTCCTAG) (LTG core: TT, RTG core: TT)  0.0888
18. TGTATTCGCTGGGTTCTAACCTGTTGCCTAG [TGTATTCCTAG_LTGcore_GC_RTGcore_CT] (site TGTATTCCTAG) (LTG core: GC, RTG core: CT)  0.0931
19. TGATACCCTTGGGTTCTAACCTGTTGCGTCT [TGATACCCTAC_LTGcore_CT_RTGcore_AG] (site TGATACCCTAC) (LTG core: CT, RTG core: AG)  0.133
20. TGTATTCCTTGGGTTCTAACCTGTTGCCTGC [TGTATTCCTAG_LTGcore_CT_RTGcore_GC] (site TGTATTCCTAG) (LTG core: CT, RTG core: GC)  0.133
21. TGATACCACTGGGTTCTAACCTGTTGCGTAG [TGATACCCTAC_LTGcore_AC_RTGcore_CT] (site TGATACCCTAC) (LTG core: AC, RTG core: CT)  0.135
22. TTATAAACTTGGGTTCTAACCTGTTGCCTGA [TTATAAACTAG_LTGcore_CT_RTGcore_TC] (site TTATAAACTAG) (LTG core: CT, RTG core: TC)  0.137
23. TGTATTCTCTGGGTTCTAACCTGTTGCCTGA [TGTATTCCTAG_LTGcore_TC_RTGcore_TC] (site TGTATTCCTAG) (LTG core: TC, RTG core: TC)  0.141
24. TGATACCAATGGGTTCTAACCTGTTGCGTAG [TGATACCCTAC_LTGcore_AA_RTGcore_CT] (site TGATACCCTAC) (LTG core: AA, RTG core: CT)  0.143
25. TTATAAACTTGGGTTCTAACCTGTTGCCTCC [TTATAAACTAG_LTGcore_CT_RTGcore_GG] (site TTATAAACTAG) (LTG core: CT, RTG core: GG)  0.179
26. TGATACCGATGGGTTCTAACCTGTTGCGTAG [TGATACCCTAC_LTGcore_GA_RTGcore_CT] (site TGATACCCTAC) (LTG core: GA, RTG core: CT)  0.221
27. TGATACCGTTGGGTTCTAACCTGTTGCGTAG [TGATACCCTAC_LTGcore_GT_RTGcore_CT] (site TGATACCCTAC) (LTG core: GT, RTG core: CT)  0.236
28. TGTATTCACTGGGTTCTAACCTGTTGCCTGT [TGTATTCCTAG_LTGcore_AC_RTGcore_AC] (site TGTATTCCTAG) (LTG core: AC, RTG core: AC)  0.251
29. TTATAAACCTGGGTTCTAACCTGTTGCCTAG [TTATAAACTAG_LTGcore_CC_RTGcore_CT] (site TTATAAACTAG) (LTG core: CC, RTG core: CT)  0.437
30. TGATACCCTTGGGTTCTAACCTGTTGCGTCC [TGATACCCTAC_LTGcore_CT_RTGcore_GG] (site TGATACCCTAC) (LTG core: CT, RTG core: GG)  0.629
31. TGATACCCTTGGGTTCTAACCTGTTGCGTGG [TGATACCCTAC_LTGcore_CT_RTGcore_CC] (site TGATACCCTAC) (LTG core: CT, RTG core: CC)  0.651
32. TGATACCCTTGGGTTCTAACCTGTTGCGTGA [TGATACCCTAC_LTGcore_CT_RTGcore_TC] (site TGATACCCTAC) (LTG core: CT, RTG core: TC)  0.864
